US5472954A, “Cyclodextrin complexation” (priority 1993, dated 1995)
≈ marks a conversion by molar mass, not a printed value. Read-outs that look alike come from different tables or passages of the source.

Columns and labels:
[1] = Dissolution of hydrocortisone from tablets, USP XXII paddle apparatus (Example 10); format: physicochemical; settings: 3 minutes, 37° C.
Procedure: After equilibration for 3 days at room temperature, the suspensions were filtered through 0.45 μm membrane filters, the tiltrates were lyophilized and the solid which formed was ground with a mortar and pestle. The amount of hydrocortisone incorporated into the HPβCD complex was determined by HPLC.
Individual disks of 200 mg hydrocortisone-HPβCD complex were compressed in a hydraulic press under vacuum and a force of 1×10^4 kg for 1.5 minutes using a 13 mm (diameter) IR potassium bromide pellet punch.
The dissolution studies were carried out using a USP XXII described paddle apparatus for dissolution rate determination. The release rate was determined at 37±1° C. and 100 rpm by adding one tablet to 900 ml of water. Samples were withdrawn at various time intervals, filtered through 0.45 membrane filters and analyzed by HPLC.

[2] = for flux (F) through hairless mouse skin: 37° C., mean ± standard deviation, 4 times
[3] = ΔH, ΔS and stability constant (Kc) of drug-HPβCD MS 0.6 complexes, effect of PVP (Example 17); format: physicochemical; settings: HPβCD MS 0.6 complex
Procedure: (§1) The effect of polyvinylpyrrolidone (PVP) on the enthalpy (ΔH) and the entropy (ΔS) of the stability constant (Kc) of the drug-cyclodextrin complex was determined.
(§2) An excess amount of the drug was added to water containing 0, 0.1, 0.25 or 0.5% (w/v) PVP and various amounts of HPβCD or HPαCD.

[4] = format: physicochemical; settings: HPαCD MS 0.6 complex
Procedure: as §1, §2

[5] = Transdermal delivery of hydrocortisone in vitro, Franz diffusion cell (Example 15a); format: in vitro ADME, hairless mice; settings: 0.25% (w/v) PVP vs no PVP, at maximum, HPβCD about 12% w/v
Procedure: . Female hairless mice were sacrificed by cervical dislocation and their full-thickness skins were removed and placed in Franz diffusion cells of type FDC 400 15FF, diameter 1.5 cm (Vangard International Inc., USA), containing 12.3 ml receptor phase. The receptor phase consisted of phosphate buffer saline pH 7.4 containing 0.3% (w/v) Brij-58™ and 0.4% (v/v) formaldehyde and was stirred with a magnetic bar. The receptor chamber was kept at 37° C. by circulating water through an external jacket. […]. After equilibration for three days, 2.0 ml of the donor phase was applied to the skin surface (the stratum corneum) and the donor chamber covered with Parafilm™ (a paraffin-coated plastic film). Samples of the receptor phase were removed from the cells, at 12 hour intervals, for three days and replaced with fresh buffer solution. The samples were kept frozen until analyzed by HPLC. Each experiment was repeated at least three times. The results depicted in FIG. 4 are the mean values ± standard error of the mean (SE).

[6] = 5% γCD
[7] = Solubility of various drugs: effect of CMC in aqueous HPβCD solutions (Example 1); settings: for S4 /S3: 0.25% CMC + 10% HPβCD vs 10% HPβCD
[8] = Effect of PVP on the solubilization of drugs in aqueous HPβCD solutions (Example 7); settings: for S4 /S3: with vs without 0.25% PVP
[9] = Effect of previously prepared solid HPβCD-polymer complexing agent on solubility (Example 13); format: physicochemical
Procedure: The resultant solutions were heated in sealed containers to 120° C. and maintained at that temperature for 30 minutes, then were lyophilized. The solids thus obtained were ground with a mortar and pestle.
The solid cyclodextrin/polymer products were reconstituted with water to afford solutions containing 9.88% (w/v) HPβCD and 0.12% (w/v) PVP, 0.12% (w/v) or CMC 0.12% (w/v) HPMC. The solubilities (S) of three drugs in these solutions and in an aqueous solution containing 10% (w/v) HPβCD without added polymer were then determined as follows:
An excess amount of each drug was added to each of the four cyclodextrin solutions and the solutions were sonicated in an ultrasonic bath for 3 hours, then allowed to equilibrate for 60 hours at room temperature (23° C.). […] However, by separate preparation of the cyclodextrin/polymer complexing agent as illustrated here, one can readily avoid heating drugs which are unstable at elevated temperature.

physchem = settings: aqueous 5% (w/v) γcd
[10] = format: physicochemical
Source text: (2) The apparent stability constants of the drug -cyclodextrin complexes were increased when the polymers were present in the aqueous cyclodextrin complexation media in accord with the present invention. […];

C[C@]12CCC(=O)C=C1CC[C@@H]1[C@@H]2[C@@H](O)C[C@@]2(C)[C@H]1CC[C@]2(O)C(=O)CO [Hydrocortisone, hydrocortisone] showed a hydrocortisone dissolved ([1]; HPβCD complex formed without CMC, average of four) of 68.3%, a hydrocortisone dissolved ([1]; HPβCD complex with 0.1% (w/v) CMC) of 74.2% and a hydrocortisone dissolved ([1]; HPβCD complex with 0.25% (w/v) CMC) of 81.0%. For the same compound, the “flux (F) through hairless mouse skin” value ([2]; 6% (w/v) HPβCD MS 0.6 and 0.25% (w/v) PVP) was 0.158 ± 0.035 μm/cm^2 /h, the transdermal delivery ([2]; PVP-containing sample vs without PVP) was “over two times faster” and the “flux (F) through hairless mouse skin” value ([2]; aqueous 8% (w/v) HPβCD MS 0.6) was 0.075 ± 0.023 μm/cm^2 /h. For the same compound, the ΔH ([3]; PVP 0.00% w/v) was -4.88 kcal/mol, the ΔS ([3]; PVP 0.00% w/v) was -6.2 J mol^-1 K^-1 and the ΔH ([3]; PVP 0.10% w/v) was -9.8 kcal/mol. For the same compound, the ΔS ([3]; PVP 0.10% w/v) was -68.6 J mol^-1 K^-1, the ΔH ([3]; PVP 0.25% w/v) was -8.72 kcal/mol and the ΔS ([3]; PVP 0.25% w/v) was -56.4 J mol^-1 K^-1. The ΔH ([3]; PVP 0.50% w/v) was -9.27 kcal/mol, the ΔS ([3]; PVP 0.50% w/v) was -64.9 J mol^-1 K^-1 and the ΔH ([4]; PVP 0.00% w/v) was -7.67 kcal/mol. It also gave a ΔS ([4]; PVP 0.00% w/v) of -70.2 J mol^-1 K^-1, a ΔH ([4]; PVP 0.10% w/v) of -9.39 kcal/mol and a ΔS ([4]; PVP 0.10% w/v) of -94.5 J mol^-1 K^-1. The ΔH ([4]; PVP 0.25% w/v) was -11.6 kcal/mol, the ΔS ([4]; PVP 0.25% w/v) was -124.2 J mol^-1 K^-1 and the ΔH ([4]; PVP 0.50% w/v) was -8.53 kcal/mol. The ΔS ([4]; PVP 0.50% w/v) was -81.9 J mol^-1 K^-1 and the “flux increase with PVP” value [5] was “about 40%”.
With NC(=O)N1c2ccccc2C=Cc2ccccc21 [Carbamazepine, carbamazepine] the “Scp /Sco” value ([6]; CMC) was 1.33, the “Scp /Sco” value ([6]; HPMC) was 2.27 and the “Scp /Sco” value ([6]; PVP) was 2.18. For the same compound, the “S4 /S3” value [7] was 1.31, the solubility ([7]; 0.25% cmc + 10% hpbetacd) was 9200 µg/mL and the solubility ([7]; aqueous 0.25% cmc) was 200 µg/mL (≈ 846 µM). It also gave a solubility ([7]; aqueous 10% hpbetacd) of 7000 µg/mL (≈ 29600 µM), a solubility ([7]; water) of 110 µg/mL (≈ 466 µM) and a solubility at 72 h ([8]; 0.25% pvp, 10% hpβcd) of 7500 µg/mL (≈ 31700 µM). For the same compound, the solubility at 72 h ([8]; 10% hpβcd ms 0.7) was 6430 µg/mL (≈ 27200 µM), the solubility at 72 h ([8]; aqueous 0.25% pvp) was 310 µg/mL (≈ 1310 µM) and the solubility at 72 h ([8]; water) was 110 µg/mL (≈ 466 µM). For the same compound, the “S4 /S3” value [8] was 1.17, the solubility ([9]; 9.88% hpbetacd + 0.12% cmc, 9.88% (w/v) HPβCD and 0.12% (w/v) CMC, read-out: S3 solubility) was 6660 µg/mL and the solubility ([9]; 9.88% hpbetacd + 0.12% hpmc, 9.88% (w/v) HPβCD and 0.12% (w/v) HPMC, read-out: S4 solubility) was 9530 µg/mL. The solubility ([9]; 9.88% hpbetacd + 0.12% pvp, 9.88% (w/v) HPβCD and 0.12% (w/v) PVP, read-out: S2 solubility) was 9800 µg/mL, the solubility ([9]; 10% hpbetacd, 10% (w/v) HPβCD, read-out: S1 solubility) was 7000 µg/mL (≈ 29600 µM) and the solubility (physchem) was 490 µg/mL (≈ 2070 µM).
With C[C@@H]1C[C@H]2[C@@H]3CCC4=CC(=O)C=C[C@]4(C)[C@@]3(F)[C@@H](O)C[C@]2(C)[C@@]1(O)C(=O)CO [Dexamethasone, dexamethasone] the “increase in apparent stability constant” value [10] was “about 26%”, the “S4 /S3” value [7] was 1.04 and the solubility ([7]; 0.25% cmc + 10% hpbetacd) was 8750 µg/mL. For the same compound, the solubility ([7]; aqueous 0.25% cmc) was 330 µg/mL (≈ 841 µM), the solubility ([7]; aqueous 10% hpbetacd) was 8430 µg/mL (≈ 21500 µM) and the solubility ([7]; water) was 260 µg/mL (≈ 662 µM). It also gave a solubility at 72 h ([8]; 0.25% pvp, 10% hpβcd) of 8000 µg/mL (≈ 20400 µM), a solubility at 72 h ([8]; 10% hpβcd ms 0.7) of 7530 µg/mL (≈ 19200 µM) and a solubility at 72 h ([8]; aqueous 0.25% pvp) of 330 µg/mL (≈ 841 µM). For the same compound, the solubility at 72 h ([8]; water) was 260 µg/mL (≈ 662 µM) and the “S4 /S3” value [8] was 1.06.
